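Five compound concentrations were applied to cells in 96-well plates for 48 hours; endpoints were derived by simple linear interpolation of the resulting dose-response curve. GI50 is the concentration that inhibits growth by half.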 Calls of active or inactive are those of the source. Rule as the data show it: active = GI50 up to about 1.1 µM and inactive = higher.
Tests used:
Experiment in all cases: DTP human tumour cell line panel, 48 h
SW-620 = test system: SW-620
SN12C = test system: SN12C
K562 = test system: K562
HOP-92 = test system: HOP-92
NCI-H23 = test system: NCI-H23
M14 = test system: M14
HCC 2998 = test system: HCC 2998
IGROV-1 = test system: IGROV-1
MOLT-4 = test system: MOLT-4
ACHN = test system: ACHN
U-251 = test system: U-251
NCI-H226 = test system: NCI-H226
COLO 205 = test system: COLO 205
RXF 393 = test system: RXF 393
SNB-78 = test system: SNB-78
SK-MEL-5 = test system: SK-MEL-5
786-0 = test system: 786-0
RXF 631 = test system: RXF 631
A549 = test system: A549
DLD-1 = test system: DLD-1
NCI-H460 = test system: NCI-H460
UACC-62 = test system: UACC-62
XF498 = test system: XF498
A498 = test system: A498
SF-268 = test system: SF-268
HT-29 = test system: HT-29
LXFL 529 = test system: LXFL 529
SNB-75 = test system: SNB-75
M19-MEL = test system: M19-MEL
OVCAR-8 = test system: OVCAR-8
SF-295 = test system: SF-295
Malme-3M = test system: Malme-3M
HL-60 = test system: HL-60
EKVX = test system: EKVX
TK-10 = test system: TK-10
KM-20L2 = test system: KM-20L2
UACC-257 = test system: UACC-257
UO-31 = test system: UO-31
KM12 = test system: KM12
LOX IMVI = test system: LOX IMVI
OVCAR-5 = test system: OVCAR-5
SK-OV-3 = test system: SK-OV-3
DMS-114 = test system: DMS-114
HCT-15 = test system: HCT-15
HOP-18 = test system: HOP-18
SF-539 = test system: SF-539
OVCAR-3 = test system: OVCAR-3
NCI-H522 = test system: NCI-H522
OVCAR-4 = test system: OVCAR-4
HOP-62 = test system: HOP-62
SNB-19 = test system: SNB-19
HCT-116 = test system: HCT-116
CAKI-1 = test system: CAKI-1
DMS-273 = test system: DMS-273
SK-MEL-28 = test system: SK-MEL-28
RPMI-8226 = test system: RPMI-8226
SR = test system: SR
CCRF-CEM = test system: CCRF-CEM
SK-MEL-2 = test system: SK-MEL-2

O=C(Nc1ccccc1[N+](=O)[O-])c1ccccc1
GI50 (SW-620): > 100 µM (inactive) | GI50 (SN12C): > 100 µM (inactive) | GI50 (K562): > 100 µM (inactive) | GI50 (HOP-92): 65.9 µM (inactive) | GI50 (NCI-H23): > 100 µM (inactive) | GI50 (M14): > 100 µM (inactive) | GI50 (HCC 2998): > 100 µM (inactive) | GI50 (IGROV-1): > 100 µM (inactive) | GI50 (MOLT-4): 53 µM (inactive) | GI50 (ACHN): > 100 µM (inactive) | GI50 (U-251): > 100 µM (inactive) | GI50 (NCI-H226): 83.8 µM (inactive) | GI50 (COLO 205): > 100 µM (inactive) | GI50 (RXF 393): 37.3 µM (inactive) | GI50 (SNB-78): > 100 µM (inactive) | GI50 (SK-MEL-5): > 100 µM (inactive) | GI50 (786-0): > 100 µM (inactive) | GI50 (RXF 631): 64.1 µM (inactive) | GI50 (A549): > 100 µM (inactive) | GI50 (DLD-1): 72.3 µM (inactive) | GI50 (NCI-H460): > 100 µM (inactive) | GI50 (UACC-62): > 100 µM (inactive) | GI50 (XF498): > 100 µM (inactive) | GI50 (A498): > 100 µM (inactive) | GI50 (SF-268): > 100 µM (inactive) | GI50 (HT-29): > 100 µM (inactive) | GI50 (LXFL 529): > 100 µM (inactive) | GI50 (SNB-75): 65.3 µM (inactive) | GI50 (M19-MEL): > 100 µM (inactive) | GI50 (OVCAR-8): > 100 µM (inactive) | GI50 (SF-295): > 100 µM (inactive) | GI50 (Malme-3M): > 100 µM (inactive) | GI50 (HL-60): > 100 µM (inactive) | GI50 (EKVX): 97.7 µM (inactive) | GI50 (TK-10): > 100 µM (inactive) | GI50 (KM-20L2): > 100 µM (inactive) | GI50 (UACC-257): > 100 µM (inactive) | GI50 (UO-31): 61.7 µM (inactive) | GI50 (KM12): 55.5 µM (inactive) | GI50 (LOX IMVI): 95.9 µM (inactive) | GI50 (OVCAR-5): > 100 µM (inactive) | GI50 (SK-OV-3): > 100 µM (inactive) | GI50 (DMS-114): 70.1 µM (inactive) | GI50 (HCT-15): > 100 µM | GI50 (HOP-18): > 100 µM (inactive) | GI50 (SF-539): > 100 µM (inactive) | GI50 (OVCAR-3): > 100 µM (inactive) | GI50 (NCI-H522): 56.9 µM (inactive) | GI50 (OVCAR-4): 82.6 µM (inactive) | GI50 (HOP-62): 67.5 µM (inactive) | GI50 (SNB-19): > 100 µM (inactive) | GI50 (HCT-116): > 100 µM (inactive) | GI50 (CAKI-1): > 100 µM (inactive) | GI50 (DMS-273): > 100 µM (inactive) | GI50 (SK-MEL-28): > 100 µM (inactive) | GI50 (RPMI-8226): 80.9 µM (inactive)

COc1ccc(Br)c(N/N=C2\CCCNC2=O)c1
GI50 (SW-620): 71.1 µM (inactive) | GI50 (SN12C): > 100 µM (inactive) | GI50 (K562): > 100 µM (inactive) | GI50 (HOP-92): 48.9 µM (inactive) | GI50 (NCI-H23): > 100 µM (inactive) | GI50 (M14): > 100 µM (inactive) | GI50 (HCC 2998): > 100 µM (inactive) | GI50 (IGROV-1): 96.4 µM (inactive) | GI50 (MOLT-4): 69 µM (inactive) | GI50 (ACHN): 40.4 µM (inactive) | GI50 (U-251): 86.3 µM (inactive) | GI50 (NCI-H226): > 100 µM (inactive) | GI50 (COLO 205): 48 µM (inactive) | GI50 (SNB-78): > 100 µM (inactive) | GI50 (SK-MEL-5): 96.6 µM (inactive) | GI50 (786-0): > 100 µM (inactive) | GI50 (RXF 631): > 100 µM (inactive) | GI50 (A549): > 100 µM (inactive) | GI50 (DLD-1): > 100 µM (inactive) | GI50 (NCI-H460): > 100 µM (inactive) | GI50 (UACC-62): > 100 µM (inactive) | GI50 (XF498): 69.2 µM (inactive) | GI50 (HT-29): > 100 µM (inactive) | GI50 (LXFL 529): > 100 µM (inactive) | GI50 (SNB-75): 23.1 µM (inactive) | GI50 (M19-MEL): > 100 µM (inactive) | GI50 (OVCAR-8): > 100 µM (inactive) | GI50 (SR): 4.71 µM (inactive) | GI50 (SF-295): > 100 µM (inactive) | GI50 (Malme-3M): > 100 µM (inactive) | GI50 (HL-60): 68.5 µM (inactive) | GI50 (EKVX): 22.6 µM (inactive) | GI50 (TK-10): 57 µM (inactive) | GI50 (CCRF-CEM): > 100 µM (inactive) | GI50 (KM-20L2): > 100 µM (inactive) | GI50 (UACC-257): > 100 µM (inactive) | GI50 (UO-31): 32.1 µM (inactive) | GI50 (KM12): > 100 µM (inactive) | GI50 (LOX IMVI): > 100 µM (inactive) | GI50 (OVCAR-5): 44.6 µM (inactive) | GI50 (SK-OV-3): 81.3 µM (inactive) | GI50 (DMS-114): 90.8 µM (inactive) | GI50 (HCT-15): > 100 µM | GI50 (HOP-18): 39.6 µM (inactive) | GI50 (SF-539): 95.5 µM (inactive) | GI50 (OVCAR-3): > 100 µM (inactive) | GI50 (SK-MEL-2): > 100 µM (inactive) | GI50 (NCI-H522): 58.5 µM (inactive) | GI50 (OVCAR-4): > 100 µM (inactive) | GI50 (HOP-62): > 100 µM (inactive) | GI50 (SNB-19): > 100 µM (inactive) | GI50 (HCT-116): > 100 µM (inactive) | GI50 (CAKI-1): 36.3 µM (inactive) | GI50 (DMS-273): > 100 µM (inactive) | GI50 (SK-MEL-28): > 100 µM (inactive) | GI50 (RPMI-8226): 51.5 µM (inactive)

From ChEMBL document CHEMBL1201862, “PubChem BioAssay data set” (2004)
